Measurements from US6713051B2, “Antiperspirant or deodorant compositions” (Unilever Home & Personal Care USA division of Conopco, Inc., priority 2001, dated 2004).

Target: T1, human PPARα (Homo sapiens, UniProt Q07869)
T1 construct: The coding region of a human PPARα cDNA was inserted downstream of the CMV promoter; expressed in transfected cells; host or cells: Cos-7 cells, transient transfection (pcDNA3.1(−)-PPARα, pRSV-RXRα, 3xPPRE-TK-luc reporter, pRL-TK)
T1 sequence (Q07869 1-468): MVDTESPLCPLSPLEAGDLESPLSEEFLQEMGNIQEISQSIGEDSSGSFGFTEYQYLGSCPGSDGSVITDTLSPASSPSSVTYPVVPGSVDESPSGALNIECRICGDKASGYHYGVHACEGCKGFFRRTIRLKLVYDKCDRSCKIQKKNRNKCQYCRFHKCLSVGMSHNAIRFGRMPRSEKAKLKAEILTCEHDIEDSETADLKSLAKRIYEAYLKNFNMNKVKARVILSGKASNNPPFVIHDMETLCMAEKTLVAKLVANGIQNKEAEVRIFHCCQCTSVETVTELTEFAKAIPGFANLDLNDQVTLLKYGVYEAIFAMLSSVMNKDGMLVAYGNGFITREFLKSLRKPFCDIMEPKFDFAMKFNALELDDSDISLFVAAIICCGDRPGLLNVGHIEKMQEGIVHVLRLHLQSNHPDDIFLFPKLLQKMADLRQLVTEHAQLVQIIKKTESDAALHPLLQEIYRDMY
T1 sequence (P19793 1-462 partner): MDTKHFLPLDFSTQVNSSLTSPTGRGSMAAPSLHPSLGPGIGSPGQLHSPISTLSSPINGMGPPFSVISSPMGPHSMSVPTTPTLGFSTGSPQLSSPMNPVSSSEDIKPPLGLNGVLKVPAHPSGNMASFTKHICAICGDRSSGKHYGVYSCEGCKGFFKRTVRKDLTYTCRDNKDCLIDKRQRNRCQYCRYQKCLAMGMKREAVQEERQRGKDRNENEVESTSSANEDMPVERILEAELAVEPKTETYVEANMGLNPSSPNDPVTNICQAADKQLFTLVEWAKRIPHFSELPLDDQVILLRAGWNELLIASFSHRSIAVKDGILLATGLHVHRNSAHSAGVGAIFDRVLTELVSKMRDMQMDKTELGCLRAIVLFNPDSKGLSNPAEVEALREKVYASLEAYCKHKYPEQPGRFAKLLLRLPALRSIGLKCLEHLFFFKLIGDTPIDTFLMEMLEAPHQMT
Test: PPARα reporter gene assay (firefly luciferase, transiently transfected Cos-7 cells)
Format: cell-based
Settings: for Result (superior activity class achieved): class reached; for Pass at (lowest tested administration level at which the test material passed): pass = activation greater than oleic acid at 100 μM, commonly >1.57 times vehicle control, 24 h treatment
Description: One convenient reporter assay for determining whether a fatty acid material is PPARα activating is based upon the firefly luciferase gene.
Fatty acids were screened to identify PPAR activating fatty acids using a reporter assay.
This assay relied on ligands binding to and activating the PPARα protein, which, in turn, activated genes under the control of PPAR response elements (PPRE). In the assay, the firefly luciferase gene was cloned behind a promoter containing 3 copies of the fatty acid binding protein PPRE.
The assay was performed by transient transfection of Cos-7 cells with a mixture of four DNA plasmids. These were:
1) PPAR reporter gene construct (Modified pNF-KB-luc reporter vector (Firefly luciferase reporter vector commercially available form Clontech (NF-kB response element, TK minimal promoter, luc^+, f1 origin, pUC origin, amp^r)). A tandem repeat of 3 PPAR response elements (PPREs) corresponding to the PPRE found in the fatty acid binding protein promoter was inserted upstream of the minimal TK promoter to replace the NF-κB response element);
2) 2) Over-expressing PPARα construct (Modified pcDNA3.1(−) vector (A mammalian expression vector commercially available from Invitrogen (CMV promoter, f1 origin, SV40 origin, ColE1 origin, neo^r, amp^r)). The coding region of a human PPARα cDNA was inserted downstream of the CMV promoter of pcDNA3.1 (−)). […] The coding region of a human RXRα cDNA has been inserted downstream of the RSV promoter. (Gift of V. K. K. Chatterjee, Addenbrooke's Hospital, Cambridge)) 4) Control luciferase construct (pRL-TK Renilla luciferase reporter vector commercially available from Promega (HSV-TK promoter, T7 promoter, Rluc^+, ori, amp^r)). For the transfection, DNA was made up as a mix of PPAR reporter gene: PPARα: RXRα: control in the ratio 40:4:3:3.
Cos-7 cells were grown in Dulbecco's modified Eagle's Medium, also herein referred to as DMEM with 10% foetal calf serum, herein also referred to as FCS at 37° C., 5% CO2 to 80% confluency. Cells were then plated out in 24 well plates at 50,000 cells per well and incubated overnight in DMEM with 10% FCS at 37° C., 5% CO2. Cells were then transfected using the LipofectAMINE reagent (GibcoBRL). For each well 0.4 μg of DNA mix (in 25 μl of DMEM) was incubated with 1 μl LipofectAMINE (in 25 μl of DMEM) for 45 minutes. The mixture was then made up to 250 μl per well and added to the cells, which had been washed with 1 ml of DMEM. Cells were then incubated for 5 hours at 37° C., 5% CO2 and 250 μl DMEM with 10% SBCS (charcoal stripped bovine calf serum) added. Cells were incubated for 18 hours at 37° C., 5% CO2 before being treated with the appropriate compound/extract. Test compounds were made up as 1000× stocks (in DMSO or ethanol as appropriate) and diluted into DMEM with 10% SBCS (500 μl per well) immediately before being added to cells. Each treatment was performed in triplicate. The transfection mix was removed from the cells and replaced with the treatment mix, and incubated for 24 hours at 37° C., 5% CO2. Cells were washed with 1 ml of PBS (without calcium or magnesium) and then lysed with 100 μl per well of 1× Passive Lysis Buffer (as supplied with Promega Dual Luciferase assay kit). Lysis was allowed to continue for 15 minutes and then the lysate was assayed for Firefly and Renilla luciferase activity using the Promega Dual Luciferase assay kit. For the assay, 20 μl of lysate was taken and assayed as described in the kit instructions using a MLX microtiter™ plate luminometer (Dynex).
Firefly luciferase activity (PPAR driven) was normalised against the Renilla luciferase value for that well and the mean calculated for the three wells treated with the same agent. Activity was then expressed as fold activation over the vehicle (DMSO or ethanol) control values for that particular plate.

Row | Structure (SMILES) | Result at (lowest administration level at which super or MS activity was achieved) | Result (superior activity class achieved) | Pass at (lowest tested administration level at which the test material passed) | PPARα activation compared with the vehicle control (100 μM, base-line)
1 | CCCCCCC(O)CCCCCCCCCCC(=O)O (stereo not drawn) [12-hydroxystearic acid] | 25 μm | MS (more superior activity [MS] (100% higher—at least 3 times PPARα activation)) | 10 μm | 
2 | CC/C=C/C/C=C/C/C=C/CCCCCCCC(=O)O [Linolenelaidic acid, linolenelaidic acid] | 25 μm | super (superior activity [super] (50% higher—at least 2.25 times PPARα activation)) | 25 μm | 
3 | CCCCC/C=C\C/C=C\C/C=C\C/C=C\CCCC(=O)O [Arachidonic acid] |  |  | 25 μm | 
4 | CCCCCC=CCC=CC/C=C\CCCCCCC(=O)O [cis-8,11,14 eicosatrienoic acid] | 100 μm | super (superior activity [super] (50% higher—at least 2.25 times PPARα activation)) | 100 μm | 
5 | CCCCC/C=C\C/C=C\CCCCCCCC(=O)O [Linoleic acid] | 100 μm | super (superior activity [super] (50% higher—at least 2.25 times PPARα activation)) | 10 μm | 
6 | CCCCCCCCCCCCCC/C=C\CCCC(=O)O [cis-5 eicosenoic acid] | 100 μm | MS (more superior activity [MS] (100% higher—at least 3 times PPARα activation)) | 10 μm | 
7 | CCCCCC/C=C/C=C/CCCCCCCC(=O)O [CLA (t9, t11)] | 100 μm | MS (more superior activity [MS] (100% higher—at least 3 times PPARα activation)) | 50 μm | 
8 | CCCCCC=CC/C=C\CCCCCCCCCC(=O)O [cis-11,14-eicosadienoic acid] | 100 μm | MS (more superior activity [MS] (100% higher—at least 3 times PPARα activation)) | 10 μm | 
9 | CCCC/C=C\CCCCCCCCCCCC(=O)O [cis-13-octadecenoic acid] |  |  | 50 μm | 
10 | CCCCCC/C=C/CCCCCCCCCC(=O)O [trans vaccenic acid] |  |  | 10 μm | 
11 | CCCCCC=CCC=CCC=CC/C=C\CCCCCC(=O)O [cis-7,10,13,16 docosatetraenoic acid] | 100 μm | super (superior activity [super] (50% higher—at least 2.25 times PPARα activation)) | 100 μm | 
12 | CCCCCC/C=C\CCCCCCCC(=O)O [Palmitoleic acid] |  |  | 50 μm | 
13 | CCCCCCCC/C=C\CCCCCCCC(=O)O [Oleic acid, reference compound] |  |  |  | Base-line Oleic acid (1.57 at 100 μM) times
14 | CCCCCCCCCC/C=C/CCCCCC(=O)O [Trans-7-octadecenoic acid] | 10 μm | MS (more superior activity [MS] (100% higher—at least 3 times PPARα activation)) | 10 μm | 
15 | CCCCCCCCCCC/C=C/CCCCC(=O)O [Petroselaidic acid] | 100 μm | super (superior activity [super] (50% higher—at least 2.25 times PPARα activation)) | 50 μm | 
16 | CCC=CCC=CC/C=C\CCCCCCCCCCCC(=O)O [cis-13,16,19 docosatrienoic acid] |  |  | 100 μm | 
17 | CCCCC/C=C/C/C=C/CCCCCCCC(=O)O [Linolelaidic acid] |  |  | 25 μm | 
18 | CC/C=C\C/C=C\C/C=C\C/C=C\CCCCC(=O)O [Stearidonic/octadecatetraenoic acid, stearidonic acid] | 25 μm | super (superior activity [super] (50% higher—at least 2.25 times PPARα activation)) | 25 μm | 
19 | CCCCCCCC/C=C/CCCCCCCC(=O)O [Elaidic acid] |  |  | 100 μm | 
20 | CCCCCC[C@@H](O)C/C=C/CCCCCCCC(=O)O [Ricinolaidic acid, ricinolaidic acid] | 25 μm | MS (more superior activity [MS] (100% higher—at least 3 times PPARα activation)) | 10 μm | 
21 | CCCCCCCC/C=C\CCCCCCCCCC(=O)O [cis-11 eicosenoic acid] |  |  | 100 μm | 
22 | CCCCCC=CC/C=C\CCCCCCCCCCCC(=O)O [cis 13,16 docosadienoic acid] |  |  | 10 μm | 
23 | CCCCCCCCC#CCCCCCCCC(=O)O [Stearolic acid] |  |  | 10 μm | 
24 | CC/C=C\CCCCCCCCCCCCCC(=O)O [cis-15-octadecanoic acid] |  |  | 100 μm | 
25 | CCC=CCC=CCC=CCC=CCC=CC/C=C\CCC(=O)O [cis-4,7,10,13,16,19 docosahexenoic acid] |  |  | 10 μm | 
26 | CCCCC/C=C/CCCCCCCCCCC(=O)O [trans-12-octadecenoic acid] |  |  | 100 μm | 
27 | CCCC/C=C/CCCCCCCCCCCC(=O)O [Trans-13-octadecenoic acid] |  |  | 10 μm | 
